In patent US12209102B2, “Heterocyclic compounds and uses thereof” (Kumquat Biosciences Inc., priority 2022, dated 2025):

How the values were obtained:
K-Ras G12D = target: T1, K-Ras G12D (Homo sapiens, UniProt P01116, G12D); assay: HTRF resonance energy transfer assay, K-Ras G12D / SOS1 interaction; assay type: biochemical; settings: HTRF assay of Example 5; read-out: IC50 against K-Ras G12D
T1 construct: made in house; host or cells: E. coli BL21 (DE3)
Summary of the method: (§1)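 Compounds, tested in duplicate at 10 μM down to 0.01 μM, were read after about 10 min or more by HTRF as the 665/620 nm emission ratio (337 nm excitation) to derive IC50. This ratio reports FRET between an anti-GST-Eu donor on GST-K-Ras (wild-type or mutant) and an anti-6His-XL665 acceptor on His-hSOS1. Buffer: ~5 mM HEPES pH 7.4, 150 mM NaCl, 1 mM DTT, 0.05% BSA, 0.0025% Igepal.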

K-Ras G12S = target: T2, K-Ras G12S (Homo sapiens, UniProt P01116, G12S); assay: HTRF resonance energy transfer assay, K-Ras G12S / SOS1 interaction; assay type: biochemical; settings: HTRF assay of Example 5; read-out: IC50 against K-Ras G12S
T2 construct: made in house; host or cells: E. coli BL21 (DE3)
Summary of the method: as §1

K-Ras G12V = target: T3, K-Ras G12V (Homo sapiens, UniProt P01116, G12V); assay: HTRF resonance energy transfer assay, K-Ras G12V / SOS1 interaction; assay type: biochemical; settings: HTRF assay of Example 5; read-out: IC50 against K-Ras G12V
T3 construct: made in house; host or cells: E. coli BL21 (DE3)
Summary of the method: as §1

K-Ras WT = target: T4, K-Ras WT (Homo sapiens, UniProt P01116); assay: HTRF resonance energy transfer assay, K-Ras WT / SOS1 interaction; assay type: biochemical; settings: HTRF assay of Example 5; read-out: IC50 against K-Ras WT
T4 construct: made in house; host or cells: E. coli BL21 (DE3)
Summary of the method: as §1

GP2D cells = assay: Ras cellular assay, growth of cells with K-Ras G12D mutation (CellTiter-Glo); assay type: cell-based; settings: cell growth, Example 9, G12D mutation, read-out: IC50 against GP2D cells
A549 cells = assay: Ras cellular assay, growth of cells with K-Ras G12S mutation (CellTiter-Glo); assay type: cell-based; settings: Homo sapiens, cell growth, Example 9, G12S mutation, read-out: IC50 against A549 cells
Summary of the method: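 Growth inhibition IC50 values come from four-parameter fits of CellTiter-Glo luminescence, read about 6 days after compound addition. G12S-mutant A549 cells (e.g. 800/well, RPMI-1640 + 10% heat-inactivated FBS) were plated in tissue-culture-treated or ultra-low-attachment 384-well format. Dosing began the following day with serial dilutions, e.g. 10 points, 3-fold.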

SW620 cells = assay: Ras cellular assay, growth of cells with K-Ras G12V mutation (CellTiter-Glo); assay type: cell-based; settings: Homo sapiens, SW-620; cell growth, Example 9, G12V mutation; read-out: IC50 against SW620 cells
Summary of the method: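 IC50 values came from a four-parameter fit of CellTiter-Glo viability, read roughly 6 days after dosing with e.g. a 10-point threefold dilution series. G12V-mutant SW620 cells (e.g. 800 per well) had been plated the previous day in RPMI-1640/10% heat-inactivated FBS, on tissue culture-treated or ultra-low attachment plates.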

T2 sequence (P01116 1-188 isoform P01116-2 G12S): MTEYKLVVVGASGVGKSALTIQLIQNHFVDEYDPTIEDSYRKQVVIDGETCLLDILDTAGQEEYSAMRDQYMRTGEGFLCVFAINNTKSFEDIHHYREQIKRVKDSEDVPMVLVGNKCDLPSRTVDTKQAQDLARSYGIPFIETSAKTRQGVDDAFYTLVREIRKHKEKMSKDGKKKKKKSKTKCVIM
T4 sequence (P01116 1-188 isoform P01116-2): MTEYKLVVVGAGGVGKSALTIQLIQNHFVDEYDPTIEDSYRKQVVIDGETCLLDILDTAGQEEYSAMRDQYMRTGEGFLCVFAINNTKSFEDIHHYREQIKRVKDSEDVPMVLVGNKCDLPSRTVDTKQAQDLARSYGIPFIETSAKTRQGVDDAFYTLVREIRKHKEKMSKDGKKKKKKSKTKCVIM
T3 sequence (P01116 1-188 isoform P01116-2 G12V): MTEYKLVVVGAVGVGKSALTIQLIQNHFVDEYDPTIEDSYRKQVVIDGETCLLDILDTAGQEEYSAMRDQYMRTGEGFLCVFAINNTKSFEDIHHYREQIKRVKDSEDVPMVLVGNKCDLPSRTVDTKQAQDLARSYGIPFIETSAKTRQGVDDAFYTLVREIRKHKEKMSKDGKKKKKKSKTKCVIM
T1 sequence (P01116 1-188 isoform P01116-2 G12D): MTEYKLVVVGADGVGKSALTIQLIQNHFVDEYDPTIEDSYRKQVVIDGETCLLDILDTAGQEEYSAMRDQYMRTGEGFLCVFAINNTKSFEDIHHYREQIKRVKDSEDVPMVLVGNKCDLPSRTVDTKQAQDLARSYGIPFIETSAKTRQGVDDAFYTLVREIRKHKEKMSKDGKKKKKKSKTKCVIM

Row | IC50 (K-Ras G12D) [nM] | IC50 (K-Ras G12S) [nM] | IC50 (K-Ras G12V) [nM] | IC50 (K-Ras WT) [nM] | IC50 (A549 cells) [nM] | IC50 (SW620 cells) [nM] | SMILES | IC50 (GP2D cells) [nM]
1 | < 100 | < 100 | < 100 | < 100 | < 5000 | < 5000 | N#Cc1c(N)sc2c(F)ccc(-c3c(Cl)c4c5c(nc(OC[C@@]67CCCN6C[C@H](F)C7)nc5c3F)N(C3CCN(C(=O)C[C@H]5CCCO5)C3)CCO4)c12 (stereo partly drawn) [Compound 1024, 2-amino-4-(8-chloro-10-fluoro-2-(((2R,7aS)-2-fluorotetrahydro-1H-pyrrolizin-7a(5H)-yl)methoxy)-4-(1-(2-((R)-tetrahydrofuran-2-yl)acetyl)pyrrolidin-3-yl)-5,6-dihydro-4H-[1,4]oxazepino[5,6,7-de]quinazolin-9-yl)-7-fluorobenzo[b]thiophene-3-carbonitrile] | < 500
2 | < 100 | < 100 | < 100 | < 100 | < 5000 | < 5000 | N#Cc1c(N)sc2c(F)ccc(-c3c(Cl)c4c5c(nc(OC[C@@]67CCCN6C[C@H](F)C7)nc5c3F)N(C3CCC5(C3)CN(C(=O)CC3COC3)C5)CCO4)c12 (stereo partly drawn) [Compound 1115, 2-amino-4-(8-chloro-10-fluoro-2-(((2R,7aS)-2-fluorotetrahydro-1H-pyrrolizin-7a(5H)-yl)methoxy)-4-(2-(2-(oxetan-3-yl)acetyl)-2-azaspiro[3.4]octan-6-yl)-5,6-dihydro-4H-[1,4]oxazepino[5,6,7-de]quinazolin-9-yl)-7-fluorobenzo[b]thiophene-3-carbonitrile] | < 500
3 | < 100 | < 100 | < 100 | < 100 | < 5000 | < 5000 | N#Cc1c(N)sc2c(F)ccc(-c3c(Cl)c4c5c(nc(OC[C@@]67CCCN6C[C@H](F)C7)nc5c3F)N(C3CCC(F)(F)C3)CCO4)c12 (stereo partly drawn) [Compound 717, 2-amino-4-(8-chloro-4-(3,3-difluorocyclopentyl)-10-fluoro-2-(((2R,7aS)-2-fluorotetrahydro-1H-pyrrolizin-7a(5H)-yl)methoxy)-5,6-dihydro-4H-[1,4]oxazepino[5,6,7-de]quinazolin-9-yl)-7-fluorobenzo[b]thiophene-3-carbonitrile] | < 500
4 | < 100 | < 100 | < 100 | < 100 | < 5000 | < 5000 | N#Cc1c(N)sc2c(F)ccc(-c3c(Cl)c4c5c(nc(OC[C@@]67CCCN6C[C@H](F)C7)nc5c3F)N(C3CCCC(O)C3)CCO4)c12 (stereo partly drawn) [Compound 854, 2-amino-4-(8-chloro-10-fluoro-2-(((2R,7aS)-2-fluorotetrahydro-1H-pyrrolizin-7a(5H)-yl)methoxy)-4-(3-hydroxycyclohexyl)-5,6-dihydro-4H-[1,4]oxazepino[5,6,7-de]quinazolin-9-yl)-7-fluorobenzo[b]thiophene-3-carbonitrile] | < 500
5 | < 100 | < 100 | < 100 | < 100 | < 5000 | < 5000 | N#Cc1c(N)sc2c(F)ccc(-c3c(Cl)c4c5c(nc(OC[C@@]67CCCN6C[C@H](F)C7)nc5c3F)N(C3(C(F)F)CC3)CCO4)c12 [Compound 1060, 2-amino-4-(8-chloro-4-(1-(difluoromethyl)cyclopropyl)-10-fluoro-2-(((2R,7aS)-2-fluorotetrahydro-1H-pyrrolizin-7a(5H)-yl)methoxy)-5,6-dihydro-4H-[1,4]oxazepino[5,6,7-de]quinazolin-9-yl)-7-fluorobenzo[b]thiophene-3-carbonitrile] | < 500
6 | < 100 | < 100 | < 100 | < 100 | < 5000 | < 5000 | N#Cc1c(N)sc2c(F)ccc(-c3c(Cl)c4c5c(nc(OC[C@@]67CCCN6C[C@H](F)C7)nc5c3F)N([C@@H]3CCN(C(=O)C(F)F)C3)CCO4)c12 [Compound 796, 2-amino-4-(8-chloro-4-((R)-1-(2,2-difluoroacetyl)pyrrolidin-3-yl)-10-fluoro-2-(((2R,7aS)-2-fluorotetrahydro-1H-pyrrolizin-7a(5H)-yl)methoxy)-5,6-dihydro-4H-[1,4]oxazepino[5,6,7-de]quinazolin-9-yl)-7-fluorobenzo[b]thiophene-3-carbonitrile] | < 500

Further lines, the compound ahead of its results:

Row | SMILES | IC50 (K-Ras G12D) [nM] | IC50 (K-Ras G12S) [nM] | IC50 (K-Ras G12V) [nM] | IC50 (K-Ras WT) [nM] | IC50 (A549 cells) [nM] | IC50 (SW620 cells) [nM] | IC50 (GP2D cells) [nM]
7 | C#Cc1c(F)ccc2cc(O)cc(-c3nc4c5c(nc(OC[C@@]67CCCN6C[C@H](F)C7)nc5c3F)N(C3CCOC3)CCN4)c12 (stereo partly drawn) [Compound 771, 5-ethynyl-6-fluoro-4-(4-fluoro-2-(((2R,7aS)-2-fluorotetrahydro-1H-pyrrolizin-7a(5H)-yl)methoxy)-10-(tetrahydrofuran-3-yl)-7,8,9,10-tetrahydro-1,3,6,7,10-pentaazacyclohepta[de]naphthalen-5-yl)naphthalen-2-ol] | < 100 | < 100 | < 100 | < 100 | < 5000 | < 5000 | < 500
8 | N#Cc1c(N)sc2c(F)ccc(-c3c(Cl)c4c5c(nc(OC[C@@]67CCCN6C[C@H](F)C7)nc5c3F)N(C3CC5CCC3N5C=O)CCO4)c12 (stereo partly drawn) [Compound 892, 2-amino-4-(8-chloro-10-fluoro-2-(((2R,7aS)-2-fluorotetrahydro-1H-pyrrolizin-7a(5H)-yl)methoxy)-4-(7-formyl-7-azabicyclo[2.2.1]heptan-2-yl)-5,6-dihydro-4H-[1,4]oxazepino[5,6,7-de]quinazolin-9-yl)-7-fluorobenzo[b]thiophene-3-carbonitrile] | < 100 | < 100 | < 100 | < 100 | < 5000 | < 5000 | < 500
9 | C[C@@H](O)[C@H]1COc2c(Cl)c(-c3ccc(F)c4sc(N)c(C#N)c34)c(F)c3nc(OC[C@@]45CCCN4C[C@H](F)C5)nc(c23)N1CC(F)F [Compound 1080, 2-amino-4-((5R)-8-chloro-4-(2,2-difluoroethyl)-10-fluoro-2-(((2R,7aS)-2-fluorotetrahydro-1H-pyrrolizin-7a(5H)-yl)methoxy)-5-((R)-1-hydroxyethyl)-5,6-dihydro-4H-[1,4]oxazepino[5,6,7-de]quinazolin-9-yl)-7-fluorobenzo[b]thiophene-3-carbonitrile] | < 100 | < 100 | < 100 | < 100 | < 5000 | < 5000 | < 500
10 | CC(O)C1COc2c(Cl)c(-c3ccc(F)c4sc(N)c(C#N)c34)c(F)c3nc(OC[C@@]45CCCN4C[C@H](F)C5)nc(c23)N1CC(F)F (single isomer, unassigned) [Compound 899] | < 100 | < 100 | < 100 | < 100 | < 5000 | < 5000 | < 500
11 | C[C@H]1CN(C2CCN(C(=O)C(F)F)C2)c2nc(OC[C@@]34CCCN3C[C@H](F)C4)nc3c(F)c(-c4ccc(F)c5sc(N)c(C#N)c45)c(Cl)c(c23)O1 (stereo partly drawn) [Compound 665, 2-amino-4-((6S)-8-chloro-4-(1-(2,2-difluoroacetyl)pyrrolidin-3-yl)-10-fluoro-2-(((2R,7aS)-2-fluorotetrahydro-1H-pyrrolizin-7a(5H)-yl)methoxy)-6-methyl-5,6-dihydro-4H-[1,4]oxazepino[5,6,7-de]quinazolin-9-yl)-7-fluorobenzo[b]thiophene-3-carbonitrile] | < 100 | < 100 | < 100 | < 100 | < 5000 | < 5000 | < 500
